Reference: PubChem BioAssay (NCI)
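Five concentrations, 48 hours, 96-well plates. GI50 = concentration required for 50% inhibition of growth. TGI: concentration producing complete growth inhibition.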

Columns and labels:
Assay in all cases: DTP human tumour cell line panel, 48 h
SK-OV-3 ovarian = test system: SK-OV-3 ovarian
SN12C renal = test system: SN12C renal
HOP-92 NSCLC = test system: HOP-92 NSCLC
EKVX NSCLC = test system: EKVX NSCLC
HCC-2998 colon = test system: HCC-2998 colon
NCI-H226 lung = test system: NCI-H226 lung
KM12 colon = test system: KM12 colon
SK-MEL-2 melanoma = test system: SK-MEL-2 melanoma
786-0 renal = test system: 786-0 renal
ACHN renal = test system: ACHN renal
MOLT-4 leukemia = test system: MOLT-4 leukemia
K-562 leukemia = test system: K-562 leukemia
A498 renal = test system: A498 renal
CCRF-CEM leukemia = test system: CCRF-CEM leukemia
HT29 colon = test system: HT29 colon
DU-145 prostate = test system: DU-145 prostate
MDA-MB-435 = test system: MDA-MB-435
HS 578T breast = test system: HS 578T breast
NCI/ADR-RES ovarian = test system: NCI/ADR-RES ovarian
MALME-3M melanoma = test system: MALME-3M melanoma
RPMI-8226 leukemia = test system: RPMI-8226 leukemia
PC-3 prostate = test system: PC-3 prostate
NCI-H522 lung = test system: NCI-H522 lung
CAKI-1 renal = test system: CAKI-1 renal
HOP-62 NSCLC = test system: HOP-62 NSCLC
SK-MEL-28 melanoma = test system: SK-MEL-28 melanoma
SF-268 CNS = test system: SF-268 CNS

Question: What does the source list for `COc1cccc2c1[C@H](OC)[C@]13O[C@@]1(C2=O)[C@H](O)[C@H](C)[C@@](O)(C(=O)[C@@H]1O[C@H]1C)[C@@H]3O`?
Answer: GI50 (SK-OV-3 ovarian): 345 nM; TGI (SK-OV-3 ovarian): 2430 nM; GI50 (SN12C renal): 197 nM; TGI (SN12C renal): 691 nM; GI50 (HOP-92 NSCLC): 223 nM; TGI (HOP-92 NSCLC): 717 nM; GI50 (EKVX NSCLC): 235 nM; TGI (EKVX NSCLC): 655 nM; GI50 (HCC-2998 colon): 215 nM; TGI (HCC-2998 colon): 485 nM; GI50 (NCI-H226 lung): 275 nM; TGI (NCI-H226 lung): 802 nM; TGI (KM12 colon): 1710 nM; GI50 (SK-MEL-2 melanoma): 230 nM; TGI (SK-MEL-2 melanoma): 542 nM; GI50 (786-0 renal): 298 nM; TGI (786-0 renal): 2060 nM; GI50 (ACHN renal): 283 nM; TGI (ACHN renal): 820 nM; GI50 (MOLT-4 leukemia): 335 nM; GI50 (K-562 leukemia): 326 nM; TGI (K-562 leukemia): > 100000 nM; GI50 (A498 renal): 215 nM; TGI (A498 renal): 542 nM; GI50 (CCRF-CEM leukemia): 323 nM; TGI (CCRF-CEM leukemia): > 100000 nM; GI50 (HT29 colon): 321 nM; TGI (HT29 colon): 1580 nM; TGI (DU-145 prostate): 1130 nM; GI50 (MDA-MB-435): 286 nM; TGI (MDA-MB-435): 812 nM; GI50 (HS 578T breast): 283 nM; TGI (HS 578T breast): 962 nM; TGI (NCI/ADR-RES ovarian): 1180 nM; GI50 (MALME-3M melanoma): 200 nM; TGI (MALME-3M melanoma): 436 nM; GI50 (RPMI-8226 leukemia): 303 nM; TGI (RPMI-8226 leukemia): 866 nM; GI50 (PC-3 prostate): 304 nM; TGI (PC-3 prostate): 1110 nM; GI50 (NCI-H522 lung): 264 nM; TGI (NCI-H522 lung): 803 nM; TGI (CAKI-1 renal): 909 nM; GI50 (HOP-62 NSCLC): 316 nM; TGI (HOP-62 NSCLC): 1790 nM; GI50 (SK-MEL-28 melanoma): 271 nM; TGI (SK-MEL-28 melanoma): 722 nM; GI50 (SF-268 CNS): 295 nM
